Entries after “also recorded” stand apart in the source; their conditions may differ. Like-named read-outs stand apart in the source and are kept apart here.
What was measured:
[1] = test system: renal cell carcinoma (RCC); experiment: Clinical course of the case patient: toxicities, response, PFS; type: in vivo
Method: A person with smoking and epilepsy history was diagnosed from a stage pT3a renal carcinoma in December 2015. Radical right nephrectomy was performed in February 2016. In September 2018, a right lung segmentectomy was practiced due to lepidic adenocarcinoma growth. On February 2021 progression was detected with right adrenal massive bleeding, hilar adenopathy and left renal adrenal metastasis. Nivolumab was initiated as first-line treatment in May 2021 for intermediate-risk clear-cell RCC. […] In December 2021, new progression was detected and second-line treatment with cabozantinib 60 mg daily was started.
(§1) This finding was discussed within the multidisciplinary team, including the oncologist and the pharmacist, and a TDM plan was planned. Method used for analysis was ultra-high-performance liquid chromatography coupled to tandem mass spectrometry.
Everolimus dose was increased from 10 mg QD to 15 mg daily (administered 10 mg, 1 h before breakfast and 5 mg, 1 h before dinner). […] However, a second dose adjustment was needed, 10 mg BID, administered before meals. Two weeks and a month later, new TDM were planned and Cminss were 10.6 ng/ml and 8.7 ng/ml, respectively (Fig. 2). […] Unfortunately, everolimus treatment was stopped on July 2022, due to lung progression, pleural effusion, and respiratory insufficiency, and finally patient died.

[2] = design: method as in product label; settings: ref product label, cited from earlier work
[3] = design: method as in PMID 24332451; settings: cited from earlier work
[4] = design: method as in PMID 28762135; settings: 10 patients, cited from earlier work
[5] = design: method as in PMID 25361989; settings: cited from earlier work
[6] = Therapeutic drug monitoring of everolimus in the case patient (UHPLC-MS/MS); type: in vivo; settings: human, plasma, oral, co-medication carbamazepine and phenytoin, read-out: Cminss
From the text: as §1

renal cancer [7] = test system: renal cancer; design: method as in PMID 22209391; settings: cited from earlier work
breast cancer = test system: breast cancer; design: method as in PMID 36188563; settings: cited from earlier work
[8] = design: method as in PMID 15785960; settings: single 2-mg dose everolimus with erythromycin 500 mg TID for 9 days; cited from earlier work
[9] = design: method as in earlier work; settings: single oral 10 mg dose, cited from earlier work
renal cancer [10] = test system: renal cancer; design: method as in PMID 27279544; settings: renal cancer patients, second or third-line therapy; cited from earlier work
[11] = design: method as in PMID 16187976; settings: single 2 mg dose everolimus with verapamil 80 mg three times daily, 16 healthy subjects; cited from earlier work
CYP3A4 = test system: CYP3A4; design: method as in lexicomp and drugs databases; settings: ref lexicomp and drugs databases; cited from earlier work

**Q.** For Nivolumab, which adverse events ([1]; nivolumab first-line treatment, case patient) is on record?
**A.** Its adverse events is “dry mouth, grade II anorexia and grade I astheny; also recorded: no immune-mediated toxicities”.

**Q.** For `CO[C@H]1C[C@@H]2CC[C@@H](C)[C@@](O)(O2)C(=O)C(=O)N2CCCC[C@H]2C(=O)O[C@H]([C@H](C)C[C@@H]2CC[C@@H](OCCO)[C@H](OC)C2)CC(=O)[C@H](C)/C=C(\C)[C@@H](O)[C@@H](OC)C(=O)[C@H](C)C[C@H](C)/C=C/C=C/C=C/1C` [everolimus], which “time to peak concentration” value ([2]; oral) is on record?
**A.** The value was 1.3 to 1.8 h.

**Q.** What about the “time to steady state” value [2] of the same compound?
**A.** The value was 7 to 14 days.

**Q.** And the “mean Cminss” value ([3]; 945 patients, lung, renal and neuroendocrine tumors)?
**A.** Its value is 15.65 ng/mL.

**Q.** And the “patients achieving optimal plasmatic concentrations (10-30 ng/ml)” value ([3]; lung cancer)?
**A.** Its value is 55.2%.

**Q.** And the “patients achieving optimal plasmatic concentrations (10-30 ng/ml)” value ([3]; neuroendocrine tumors)?
**A.** Its value is 45%.

**Q.** What about the “patients achieving optimal plasmatic concentrations (10-30 ng/ml)” value ([3]; renal cancer) of the same compound?
**A.** Its value is 62.9%.

**Q.** What about the “decrease of Cminss” value ([3]; with CYP3A4 inducers) of the same compound?
**A.** The value was 7%.

**Q.** What about the “increase of Cminss” value ([3]; with strong CYP3A4 inhibitors) of the same compound?
**A.** Its value is 10%.

**Q.** And the AUC ([4]; 5 mg twice daily)?
**A.** Its AUC is 436 ng·h/mL.

**Q.** And the “maximum concentration (Cmax)” value ([4]; 5 mg twice daily)?
**A.** The value was 40.3 ng/mL.

**Q.** And the “minimum steady-state concentration (Cminss)” value ([4]; 5 mg twice daily)?
**A.** The value was 13.7 ng/mL.

**Q.** And the AUC ([4]; 10 mg once daily)?
**A.** Its AUC is 435 ng·h/mL.

**Q.** What about the “maximum concentration (Cmax)” value ([4]; 10 mg once daily) of the same compound?
**A.** Its value is 61.5 ng/mL.

**Q.** And the “minimum steady-state concentration (Cminss)” value ([4]; 10 mg once daily)?
**A.** The value was 9.6 ng/mL.

**Q.** What about the plasma concentration ([5]; before fenofibrate) of the same compound?
**A.** Its plasma concentration is 10.1 ng/mL.

**Q.** And the plasma concentration ([5]; with fenofibrate)?
**A.** The plasma concentration was 4.2 ng/mL.

**Q.** What about the PFS ([1]; case patient, everolimus third line RCC) of the same compound?
**A.** Its PFS is 3.7 months.

**Q.** What about the toxicities ([1]; during everolimus treatment) of the same compound?
**A.** The toxicities was “no relevant toxicities were observed”.

**Q.** What about the response to treatment ([1]; during everolimus treatment, third line RCC) of the same compound?
**A.** The response to treatment was “stable disease; also recorded: stabilization disease”.

**Q.** And the toxicities ([1]; everolimus 10 mg QD, four weeks after starting treatment)?
**A.** Its toxicities is “no toxicities”.

**Q.** And the toxicities ([1]; everolimus 15 mg daily, four weeks later)?
**A.** The toxicities was “without relevant toxicities”.

**Q.** And the concentration at 1 month ([6]; 10 mg BID, everolimus 10 mg BID, a month later)?
**A.** Its concentration at 1 month is 8.7 ng/mL.

**Q.** And the concentration at 2 weeks ([6]; 10 mg BID, everolimus 10 mg BID, two weeks later)?
**A.** The concentration at 2 weeks was 10.6 ng/mL.

**Q.** What about the concentration at 4 weeks ([6]; 10 mg QD, everolimus 10 mg QD fasted, four weeks after starting treatment) of the same compound?
**A.** Its concentration at 4 weeks is 3.7 ng/mL.

**Q.** What about the concentration at 4 weeks ([6]; 15 mg daily (10 mg + 5 mg), everolimus 15 mg daily (10 mg + 5 mg), four weeks later) of the same compound?
**A.** The concentration at 4 weeks was 6.4 ng/mL.

**Q.** What about the “median PFS” value (renal cancer [7]; renal cancer patients, comparison group before the drop (earlier line)) of the same compound?
**A.** The value was 5.4 months.

**Q.** What about the “median PFS” value (renal cancer [7]; third line, previously treated with two anti-VEGFR tyrosine kinase inhibitor) of the same compound?
**A.** Its value is 4 months.

**Q.** What about the “median PFS” value (breast cancer; breast cancer patients) of the same compound?
**A.** The value was 13.7 months.

**Q.** And the “median Cminss in patients with dose-limiting toxicities” value (breast cancer)?
**A.** The value was 19 ng/mL.

**Q.** And the “patients with Cminss below 10 ng/ml” value (breast cancer)?
**A.** The value was 50%.

**Q.** And the “increase of AUC” value [8]?
**A.** Its value is 4.4 fold.

**Q.** What about the “increase of Cmax” value [8] of the same compound?
**A.** The value was 2.0 fold.

**Q.** What about the “reduction of AUC” value ([9]; high-fat meal vs fasting) of the same compound?
**A.** The value was 33%.

**Q.** What about the “reduction of Cmax” value ([9]; high-fat meal vs fasting) of the same compound?
**A.** Its value is 54%.

**Q.** What about the “reduction of AUC” value ([9]; low-fat meal vs fasting) of the same compound?
**A.** Its value is 22%.

**Q.** And the “reduction of Cmax” value ([9]; low-fat meal vs fasting)?
**A.** The value was 42%.

**Q.** And the “median PFS” value (renal cancer [10])?
**A.** Its value is 3.8 months.

**Q.** What about the “increase of AUC” value [11] of the same compound?
**A.** The value was 3.5 fold.

**Q.** And the “increase of Cmax” value [11]?
**A.** The value was 2.3 fold.

**Q.** For `COc1cc2nccc(Oc3ccc(NC(=O)C4(C(=O)Nc5ccc(F)cc5)CC4)cc3)c2cc1OC` [cabozantinib], which adverse events ([1]; cabozantinib 60 mg daily second-line treatment, case patient) is on record?
**A.** Its adverse events is “hypertension grade I; also recorded: nausea and diarrhea grade I”.

**Q.** Which “classification of effect on CYP3A4 metabolism” value (CYP3A4) does the source give for `O=C1NC(=O)C(c2ccccc2)(c2ccccc2)N1` [phenytoin] here?
**A.** The value was “strong inducers”.

**Q.** With `NC(=O)N1c2ccccc2C=Cc2ccccc21` [carbamazepine] as the compound, how does the “classification of effect on CYP3A4 metabolism” value (CYP3A4) read?
**A.** Its value is “strong inducers”.

Source: PMC10308769, “First reported double drug–drug interaction in a cancer renal patient under everolimus treatment: therapeutic drug monitoring and review of literature” (European Journal of Medical Research, 2023)
